Source: the NIST ThermoML archive (doi:10.1016/j.tca.2019.178375)
Numbers after ± are expanded uncertainties.

Assays:
[1] = Crystal; DTA
[2] = Molar enthalpy of transition or fusion; settings: Crystal; DSC

Normal melting temperature [1]: 227.00 ± 4 °C
Molar enthalpy of transition or fusion [2]: 7.63 ± 0.478 kcal/mol
SMILES: Cl.c1ccc([C@H]2CN3CCSC3=N2)cc1 [(-)-Levamisole hydrochloride]
